Test results from ChEMBL document CHEMBL1138261, “Probing binding requirements of type I and type II isoforms of inosine monophosphate dehydrogenase with adenine-modified nicotinamide adenine dinucleotide analogues” (J Med Chem, 2007).

Tests used:
[1] = target: Inosine-5'-monophosphate dehydrogenase 2 (Homo sapiens, UniProt P12268); test: Inhibition of human IMPDH type 2
[2] = target: Malate dehydrogenase (Sus scrofa); test: Inhibition of porcine heart malate dehydrogenase
[3] = target: Inosine-5'-monophosphate dehydrogenase 1 (Homo sapiens, UniProt P20839); test: Inhibition of human IMPDH type 1
Chain of Inosine-5'-monophosphate dehydrogenase 1 (P20839 whole entry): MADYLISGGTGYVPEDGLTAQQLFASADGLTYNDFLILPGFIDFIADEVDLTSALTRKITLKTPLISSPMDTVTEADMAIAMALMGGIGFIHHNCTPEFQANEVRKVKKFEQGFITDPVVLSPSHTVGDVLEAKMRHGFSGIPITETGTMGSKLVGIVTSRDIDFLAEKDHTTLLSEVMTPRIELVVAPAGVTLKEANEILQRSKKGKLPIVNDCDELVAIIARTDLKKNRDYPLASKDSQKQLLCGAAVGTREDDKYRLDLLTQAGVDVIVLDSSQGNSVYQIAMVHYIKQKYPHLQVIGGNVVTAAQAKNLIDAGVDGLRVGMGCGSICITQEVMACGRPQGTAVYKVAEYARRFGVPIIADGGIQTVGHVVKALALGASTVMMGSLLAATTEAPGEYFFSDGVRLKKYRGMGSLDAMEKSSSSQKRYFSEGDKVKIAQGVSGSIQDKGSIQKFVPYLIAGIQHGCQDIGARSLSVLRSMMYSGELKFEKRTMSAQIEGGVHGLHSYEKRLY

[4] = target: L-lactate dehydrogenase (Bos taurus); test: Inhibition of bovine heart lactate dehydrogenase
[5] = Inhibition of horse liver alcohol dehydrogenase; set-up: species or system Equus caballus
K562 = test: Antiproliferative activity against human K562 cells after 72 hrs; assay type: functional, cell-based; conditions: K562, 72 h

| SMILES | Ki [1] | IC50 [2] | Ki [3] | IC50 [4] | IC50 [5] | IC50 (K562) |
| --- | --- | --- | --- | --- | --- | --- |
| NC(=O)c1csc([C@@H]2O[C@H](COP(=O)(O)OP(=O)(O)OC[C@H]3O[C@@H](n4cnc5c(N)nc(-c6ccccc6)nc54)[C@H](O)[C@@H]3O)[C@@H](O)[C@H]2O)n1 | 0.143 µM | > 50 µM | 0.02 µM | > 50 µM | – | – |
| CCc1nc(N)c2ncn([C@@H]3O[C@H](COP(=O)(O)OP(=O)(O)OC[C@H]4O[C@@H](c5nc(C(N)=O)cs5)[C@H](O)[C@@H]4O)[C@@H](O)[C@H]3O)c2n1 | – | > 50 µM | 0.001 µM | > 50 µM | > 50 µM | – |
| COc1c(C)c2c(c(O)c1C/C=C(\C)CCC(=O)O)C(=O)OC2 [MYCOPHENOLIC ACID] | – | – | – | – | – | 7.7 µM |
| C=Cc1nc(N)c2ncn([C@@H]3O[C@H](COP(=O)(O)OP(=O)(O)OC[C@H]4O[C@@H](c5nc(C(N)=O)cs5)[C@H](O)[C@@H]4O)[C@@H](O)[C@H]3O)c2n1 | 0.094 µM | > 50 µM | 0.096 µM | > 50 µM | 39 µM | – |
| NC(=O)c1csc([C@@H]2O[C@H](COP(=O)(O)OP(=O)(O)OC[C@H]3O[C@@H](n4cnc5c(N)nc(Nc6ccccc6)nc54)[C@H](O)[C@@H]3O)[C@@H](O)[C@H]2O)n1 | 0.153 µM | > 50 µM | 0.045 µM | > 50 µM | > 50 µM | – |
| NC(=O)c1csc([C@@H]2O[C@H](COP(=O)(O)OP(=O)(O)OC[C@H]3O[C@@H](n4cnc5c(N)nc(I)nc54)[C@H](O)[C@@H]3O)[C@@H](O)[C@H]2O)n1 | 0.084 µM | > 50 µM | 0.019 µM | > 50 µM | – | – |
| NC(=O)c1csc([C@@H]2O[C@H](COP(=O)(O)OP(=O)(O)OC[C@H]3O[C@@H](n4cnc5c(N)nc(NCc6ccccc6)nc54)[C@H](O)[C@@H]3O)[C@@H](O)[C@H]2O)n1 | 0.169 µM | 30 µM | 0.045 µM | > 50 µM | – | – |
| COc1c(C)c2c(c(O)c1CCOP(=O)(O)CP(=O)(O)OC[C@H]1O[C@@H](n3cnc4c(N)nc(-c5ccccc5)nc43)[C@H](O)[C@@H]1O)C(=O)OC2 | 0.108 µM | 14.3 µM | 0.066 µM | > 50 µM | > 50 µM | 1.1 µM |
| C#Cc1nc(N)c2ncn([C@@H]3O[C@H](COP(=O)(O)OP(=O)(O)OC[C@H]4O[C@@H](c5nc(C(N)=O)cs5)[C@H](O)[C@@H]4O)[C@@H](O)[C@H]3O)c2n1 | 0.049 µM | > 50 µM | 0.01 µM | > 50 µM | > 50 µM | – |
| NC(=O)c1csc([C@@H]2O[C@H](COP(=O)(O)OP(=O)(O)OC[C@H]3O[C@@H](n4cnc5c(N)ncnc54)[C@H](O)[C@@H]3O)[C@@H](O)[C@H]2O)n1 [TIAZOFURIN ADENINE DINUCLEOTIDE] | – | – | – | – | – | 12.4 µM |
| NC(=O)c1csc([C@@H]2O[C@H](COP(=O)(O)OP(=O)(O)OC[C@H]3O[C@@H](n4cnc5c(N)nc(N)nc54)[C@H](O)[C@@H]3O)[C@@H](O)[C@H]2O)n1 | – | > 50 µM | 0.007 µM | > 50 µM | > 50 µM | – |
| NC(=O)c1csc([C@@H]2O[C@H](COP(=O)(O)OP(=O)(O)OC[C@H]3O[C@@H](n4cnc5c(N)nc(NCCc6ccccc6)nc54)[C@H](O)[C@@H]3O)[C@@H](O)[C@H]2O)n1 | 0.255 µM | 12.7 µM | 0.073 µM | > 50 µM | – | – |
